# The source made the active and inactive calls.
# Assays:
# Orexin receptor type 2 [1] = molecular target: T1, Orexin receptor type 2 (Homo sapiens, UniProt O43614); test: Counterscreen assay for antagonists of the orexin 1 receptor (OX1R; HCRTR1): Homogeneous Time Resolved Fluorescence (HTRF)-based cell-based dose response assay for antagonists of the orexin 2 receptor (OX2R; HCRTR2), run by assay provider.; type: functional
# Orexin receptor type 2 [2] = molecular target: T1, Orexin receptor type 2; test: Counterscreen assay for antagonists of the orexin 1 receptor (OX1R; HCRTR1): Fluorescence-based cell-based dose response assay for antagonists of the orexin 2 receptor (OX2R; HCRTR2), run by assay provider.; type: functional
# [3] = molecular target: T2, Orexin/Hypocretin receptor type 1 (Homo sapiens, UniProt O43613); test: Homogeneous Time Resolved Fluorescence (HTRF)-based cell-based high throughput dose response assay for antagonists of the orexin 1 receptor (OX1R; HCRTR1). [Related pubchem assays (depositor defined):AID434989, AID435008, AID463079, AID485270, AID492963, AID492964, AID492965, AID493232, AID504717, AID504718]; type: functional
# T2 sequence (O43613 whole entry): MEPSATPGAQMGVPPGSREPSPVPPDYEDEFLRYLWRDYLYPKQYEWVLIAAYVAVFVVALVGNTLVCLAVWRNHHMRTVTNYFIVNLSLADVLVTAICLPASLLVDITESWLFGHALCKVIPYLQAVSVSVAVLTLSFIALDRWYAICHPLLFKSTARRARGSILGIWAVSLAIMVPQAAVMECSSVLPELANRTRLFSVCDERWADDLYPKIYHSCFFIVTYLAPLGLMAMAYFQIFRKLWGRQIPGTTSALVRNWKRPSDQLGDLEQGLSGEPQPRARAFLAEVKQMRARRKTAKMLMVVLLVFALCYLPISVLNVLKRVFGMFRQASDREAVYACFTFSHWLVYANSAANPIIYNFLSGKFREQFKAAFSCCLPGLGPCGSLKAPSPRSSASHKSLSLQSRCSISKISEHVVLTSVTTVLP
# [4] = molecular target: T2, Orexin/Hypocretin receptor type 1; test: Fluorescence-based cell-based high throughput dose response assay for antagonists of the orexin 1 receptor (OX1R; HCRTR1). [Related pubchem assays (depositor defined):AID434989, AID435008, AID463079, AID485270, AID492963, AID492964, AID492965, AID493232, AID504717, AID504718]; type: functional
# CHO-K1 = test: (§1) Counterscreen for antagonists of the orexin 1 receptor (OX1R; HCRTR1): Homogeneous time resolved fluorescence (HTRF)-based cell-based dose response assay to identify antagonists of the parental CHO-K1 cell line. [Related pubchem assays (depositor defined):AID434989, AID435008, AID463079, AID485270, AID492963, AID492964, AID492965, AID493232, AID504699, AID504701]; type: functional; conditions: Cricetulus griseus
# [5] = as §1, with “Fluorescence-based” for “Homogeneous time resolved fluorescence (HTRF)-based”, “cell-based high throughput” for “cell-based”, “CHO” for “CHO-K1”; type: functional
# [6] = molecular target: Sphingosine 1-phosphate receptor 4 (Homo sapiens, UniProt O95977); test: Late-stage fluorescence-based dose-response cell-based counterscreen assay to identify agonists of the Sphingosine 1-Phosphate Receptor 3 (S1P3): Sphingosine 1-Phosphate Receptor 4 (S1P4) agonist assay.; type: functional
# [7] = molecular target: Sphingosine 1-phosphate receptor 2 (Homo sapiens, UniProt O95136); test: Late-stage fluorescence-based dose-response cell-based counterscreen assay to identify agonists of the Sphingosine 1-Phosphate Receptor 3 (S1P3): Sphingosine 1-Phosphate Receptor 2 (S1P2) agonist assay.; type: functional
# Sequence of Sphingosine 1-phosphate receptor 2 (O95136 whole entry): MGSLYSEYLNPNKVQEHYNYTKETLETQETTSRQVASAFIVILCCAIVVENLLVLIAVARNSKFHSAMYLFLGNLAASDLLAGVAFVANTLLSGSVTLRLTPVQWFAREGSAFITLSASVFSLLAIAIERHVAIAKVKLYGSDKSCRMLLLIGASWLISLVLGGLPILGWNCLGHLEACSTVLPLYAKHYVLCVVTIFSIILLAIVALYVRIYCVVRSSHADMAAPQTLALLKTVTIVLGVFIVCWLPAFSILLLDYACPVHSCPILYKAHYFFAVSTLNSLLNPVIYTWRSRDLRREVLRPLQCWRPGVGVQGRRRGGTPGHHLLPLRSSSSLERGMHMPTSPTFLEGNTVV
# [8] = molecular target: T3, Replicative DNA helicase DnaB (Mycobacterium tuberculosis, UniProt P9WMR3); test: DnaB intein splicing inhibitors, dose response, biochemical, cell-free fluorescence (AID 449749); type: functional
# T3 sequence (P9WMR3 whole entry): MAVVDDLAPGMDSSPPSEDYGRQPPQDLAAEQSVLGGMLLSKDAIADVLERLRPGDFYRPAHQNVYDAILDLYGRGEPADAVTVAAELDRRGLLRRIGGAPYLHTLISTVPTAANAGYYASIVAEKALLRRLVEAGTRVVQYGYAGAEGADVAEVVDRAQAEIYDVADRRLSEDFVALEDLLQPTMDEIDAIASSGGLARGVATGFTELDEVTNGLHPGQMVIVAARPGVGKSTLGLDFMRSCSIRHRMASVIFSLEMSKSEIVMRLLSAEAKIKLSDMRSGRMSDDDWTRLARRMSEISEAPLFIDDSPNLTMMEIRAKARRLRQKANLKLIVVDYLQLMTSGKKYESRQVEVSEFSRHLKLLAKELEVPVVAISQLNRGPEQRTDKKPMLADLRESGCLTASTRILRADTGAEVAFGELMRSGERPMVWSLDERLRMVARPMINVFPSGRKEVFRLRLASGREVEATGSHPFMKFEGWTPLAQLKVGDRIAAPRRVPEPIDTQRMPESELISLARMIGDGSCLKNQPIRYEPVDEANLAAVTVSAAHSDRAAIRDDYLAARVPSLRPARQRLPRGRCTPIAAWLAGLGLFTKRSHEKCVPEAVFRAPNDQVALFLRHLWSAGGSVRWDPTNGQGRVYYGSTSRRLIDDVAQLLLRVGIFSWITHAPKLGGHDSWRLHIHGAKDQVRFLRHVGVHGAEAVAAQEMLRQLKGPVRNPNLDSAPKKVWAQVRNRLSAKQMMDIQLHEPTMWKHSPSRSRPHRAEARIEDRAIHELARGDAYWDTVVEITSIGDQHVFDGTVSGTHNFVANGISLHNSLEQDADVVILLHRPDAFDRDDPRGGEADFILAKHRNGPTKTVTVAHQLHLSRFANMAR
# Protein RecA = molecular target: T4, Protein RecA (Mycobacterium tuberculosis, UniProt P9WHJ3); test: Fluorescence Cell-Free Homogeneous Dose Retest to Identify Inhibitors of RecA-Intein Splicing Activity. [Related pubchem assays (depositor defined):AID2097, AID2223, AID489010, AID492950]; type: functional
# T4 sequence (P9WHJ3 whole entry): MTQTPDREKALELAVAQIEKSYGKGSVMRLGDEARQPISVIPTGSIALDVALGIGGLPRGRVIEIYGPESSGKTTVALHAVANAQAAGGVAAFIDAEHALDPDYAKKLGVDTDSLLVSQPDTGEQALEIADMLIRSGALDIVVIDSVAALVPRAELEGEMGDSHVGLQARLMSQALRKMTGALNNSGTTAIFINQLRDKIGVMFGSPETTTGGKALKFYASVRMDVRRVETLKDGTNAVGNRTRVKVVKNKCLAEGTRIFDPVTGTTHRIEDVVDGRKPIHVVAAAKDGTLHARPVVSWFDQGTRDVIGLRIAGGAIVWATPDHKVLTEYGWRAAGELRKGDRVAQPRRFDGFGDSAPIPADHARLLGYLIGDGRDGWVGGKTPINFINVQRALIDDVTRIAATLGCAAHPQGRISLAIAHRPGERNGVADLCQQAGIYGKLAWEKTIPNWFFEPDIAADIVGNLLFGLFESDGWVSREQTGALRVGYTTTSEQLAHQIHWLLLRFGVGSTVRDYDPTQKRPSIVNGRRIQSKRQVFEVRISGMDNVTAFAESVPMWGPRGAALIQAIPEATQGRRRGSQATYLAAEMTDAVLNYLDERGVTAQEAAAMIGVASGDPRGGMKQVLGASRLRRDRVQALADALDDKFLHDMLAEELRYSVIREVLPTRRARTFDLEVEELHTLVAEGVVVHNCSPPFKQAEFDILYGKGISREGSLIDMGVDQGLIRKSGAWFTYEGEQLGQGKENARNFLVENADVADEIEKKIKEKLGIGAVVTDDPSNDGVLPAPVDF
# Melanocortin receptor 4 = Melanocortin receptor 4 (Homo sapiens, UniProt P32245); test: inhibitors of MC4R cAMP signaling – cell-based, TR-FRET, biased antagonists, dose response (AID 602298); type: functional;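 note: antagonist potency against agonist-stimulated cAMP production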
# Sequence of Melanocortin receptor 4 (P32245 whole entry): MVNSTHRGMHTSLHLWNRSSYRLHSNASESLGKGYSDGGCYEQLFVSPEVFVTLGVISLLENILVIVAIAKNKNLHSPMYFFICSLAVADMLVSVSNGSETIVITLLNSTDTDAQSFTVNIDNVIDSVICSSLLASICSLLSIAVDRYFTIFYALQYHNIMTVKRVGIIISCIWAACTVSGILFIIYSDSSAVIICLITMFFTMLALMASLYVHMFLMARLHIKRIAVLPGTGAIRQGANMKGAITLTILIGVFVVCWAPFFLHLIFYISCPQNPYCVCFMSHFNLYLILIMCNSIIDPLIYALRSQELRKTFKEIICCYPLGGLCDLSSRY
# [9] = Intein inhibitors as potential Tuberculosis drugs, a cytotoxicity screen. [Related pubchem assays (depositor defined):AID2221, AID2223, AID434968, AID435010, AID449749, AID449750, AID489010]; type: functional
# [10] = molecular target: G-protein coupled receptor 55 (Homo sapiens, UniProt Q9Y2T6); test: selective activators of receptor GPR55 – imaging, U2OS cells, beta-arrestin-GFP redistribution, primary screen (AID 1961); type: functional
# Sequence of G-protein coupled receptor 55 (Q9Y2T6 whole entry): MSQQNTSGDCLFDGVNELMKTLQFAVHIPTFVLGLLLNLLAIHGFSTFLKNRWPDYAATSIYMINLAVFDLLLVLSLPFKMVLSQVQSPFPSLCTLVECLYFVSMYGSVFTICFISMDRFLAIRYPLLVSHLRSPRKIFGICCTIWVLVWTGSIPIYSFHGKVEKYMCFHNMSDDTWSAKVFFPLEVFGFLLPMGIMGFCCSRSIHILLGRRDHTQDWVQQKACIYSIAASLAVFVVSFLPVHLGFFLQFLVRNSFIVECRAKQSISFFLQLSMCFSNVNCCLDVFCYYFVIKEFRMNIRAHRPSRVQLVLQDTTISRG
# [11] = cAMP pathway inhibition in counterscreen cell line – TR-FRET cAMP detection, counter-screen for MC4R biased antagonist project, dose response (AID 602305); type: functional, cell-based;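 note: U2OS cells stimulated with forskolin near its EC80 as the cAMP inducer; potency is for inhibition of forskolin-stimulated cAMP signaling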
# [12] = molecular target: Mitogen-activated protein kinase 9 (Homo sapiens, UniProt P45984); type: functional;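 note: value from a kinome panel profiling assay, MAPK9 panel entry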
# [13] = molecular target: Homeodomain-interacting protein kinase 2 (Homo sapiens, UniProt Q9H2X6); type: functional;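 note: measured within a kinome-wide kinase profiling panel, HIPK2 being one panel member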
# [14] = molecular target: Mitogen-activated protein kinase kinase kinase kinase 4 (Homo sapiens, UniProt O95819); type: functional
# [15] = molecular target: Cell division cycle 7-related protein kinase (Homo sapiens, UniProt O00311); type: functional;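 note: value obtained from a kinome-wide kinase panel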
# Sequence of Cell division cycle 7-related protein kinase (O00311 whole entry): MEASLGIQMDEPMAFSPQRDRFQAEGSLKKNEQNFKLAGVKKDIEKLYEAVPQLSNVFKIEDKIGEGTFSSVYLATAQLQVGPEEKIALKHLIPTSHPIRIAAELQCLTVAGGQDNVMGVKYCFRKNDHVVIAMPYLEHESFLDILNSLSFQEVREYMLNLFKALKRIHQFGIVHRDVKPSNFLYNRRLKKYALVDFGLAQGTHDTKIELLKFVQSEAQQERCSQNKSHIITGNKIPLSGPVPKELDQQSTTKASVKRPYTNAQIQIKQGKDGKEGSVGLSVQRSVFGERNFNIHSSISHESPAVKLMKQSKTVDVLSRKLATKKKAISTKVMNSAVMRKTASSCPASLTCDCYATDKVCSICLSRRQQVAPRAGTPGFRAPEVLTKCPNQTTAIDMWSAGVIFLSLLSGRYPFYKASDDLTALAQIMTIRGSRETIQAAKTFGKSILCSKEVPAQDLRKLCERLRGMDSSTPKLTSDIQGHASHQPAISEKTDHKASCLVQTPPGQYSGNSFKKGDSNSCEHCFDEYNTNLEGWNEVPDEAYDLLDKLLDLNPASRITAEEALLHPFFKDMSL
# [16] = molecular target: Serine/threonine-protein kinase pim-1 (Homo sapiens, UniProt P11309); type: functional
# Sequence of Serine/threonine-protein kinase pim-1 (P11309 whole entry): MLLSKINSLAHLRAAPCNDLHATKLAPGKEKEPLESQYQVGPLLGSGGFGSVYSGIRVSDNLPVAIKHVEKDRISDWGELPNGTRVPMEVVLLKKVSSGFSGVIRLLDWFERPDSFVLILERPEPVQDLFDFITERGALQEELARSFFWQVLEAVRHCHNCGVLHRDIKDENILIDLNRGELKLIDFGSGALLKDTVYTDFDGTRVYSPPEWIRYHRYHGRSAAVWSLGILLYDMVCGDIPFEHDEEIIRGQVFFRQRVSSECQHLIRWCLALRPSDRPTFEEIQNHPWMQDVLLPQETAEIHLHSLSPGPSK
# [17] = molecular target: Interleukin-1 receptor-associated kinase 4 (Homo sapiens, UniProt Q9NWZ3); type: functional
# Sequence of Interleukin-1 receptor-associated kinase 4 (Q9NWZ3 whole entry): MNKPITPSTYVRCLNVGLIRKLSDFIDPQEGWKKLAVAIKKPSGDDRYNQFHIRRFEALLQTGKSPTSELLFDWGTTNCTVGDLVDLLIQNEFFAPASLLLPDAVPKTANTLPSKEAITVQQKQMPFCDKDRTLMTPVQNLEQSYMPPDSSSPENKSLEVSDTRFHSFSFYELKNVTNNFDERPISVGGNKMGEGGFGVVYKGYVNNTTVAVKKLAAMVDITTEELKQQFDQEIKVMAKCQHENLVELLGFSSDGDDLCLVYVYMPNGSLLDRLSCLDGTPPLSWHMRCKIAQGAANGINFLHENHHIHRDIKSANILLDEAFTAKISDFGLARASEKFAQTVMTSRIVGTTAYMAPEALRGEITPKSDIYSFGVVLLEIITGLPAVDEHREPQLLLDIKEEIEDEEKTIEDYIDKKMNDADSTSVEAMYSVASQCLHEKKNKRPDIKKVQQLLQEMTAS
# [18] = molecular target: cAMP-dependent protein kinase catalytic subunit alpha (Homo sapiens, UniProt P17612); type: functional
# [19] = molecular target: Glycogen synthase kinase-3 beta (Homo sapiens, UniProt P49841); type: functional;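 note: value comes from a broad kinome profiling panel, with GSK3B as the panel member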
# Sequence of Glycogen synthase kinase-3 beta (P49841 whole entry): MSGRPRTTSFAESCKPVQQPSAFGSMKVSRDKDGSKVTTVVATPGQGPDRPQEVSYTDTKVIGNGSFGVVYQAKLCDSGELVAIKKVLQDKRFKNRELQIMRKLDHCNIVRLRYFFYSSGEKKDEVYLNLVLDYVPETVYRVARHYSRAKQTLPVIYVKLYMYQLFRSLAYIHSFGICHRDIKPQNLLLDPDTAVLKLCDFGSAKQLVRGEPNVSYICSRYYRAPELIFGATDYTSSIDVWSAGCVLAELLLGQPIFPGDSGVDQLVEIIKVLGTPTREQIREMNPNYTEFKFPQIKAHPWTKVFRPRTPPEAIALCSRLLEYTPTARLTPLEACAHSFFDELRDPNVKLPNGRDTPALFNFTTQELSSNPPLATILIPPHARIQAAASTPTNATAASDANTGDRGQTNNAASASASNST
# Aurora kinase A = Aurora kinase A (Homo sapiens, UniProt O14965); type: functional;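 note: value from the Navigating the Kinome kinase panel profiling, panel entry STK6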
# Sequence of Aurora kinase A (O14965 whole entry): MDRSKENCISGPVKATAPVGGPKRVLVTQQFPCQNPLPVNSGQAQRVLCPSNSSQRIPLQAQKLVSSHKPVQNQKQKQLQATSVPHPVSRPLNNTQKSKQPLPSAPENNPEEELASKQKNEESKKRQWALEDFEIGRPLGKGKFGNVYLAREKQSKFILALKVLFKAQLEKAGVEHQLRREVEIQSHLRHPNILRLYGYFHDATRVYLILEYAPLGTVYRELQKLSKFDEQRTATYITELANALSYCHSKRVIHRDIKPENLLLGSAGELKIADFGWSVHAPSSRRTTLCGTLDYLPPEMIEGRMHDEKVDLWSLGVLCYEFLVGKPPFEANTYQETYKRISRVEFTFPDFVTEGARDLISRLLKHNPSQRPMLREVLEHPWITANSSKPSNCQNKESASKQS
# [20] = molecular target: Vascular endothelial growth factor receptor 2 (Homo sapiens, UniProt P35968); type: functional
# Aurora kinase B = Aurora kinase B (Homo sapiens, UniProt Q96GD4); type: functional
# [21] = molecular target: Serine/threonine-protein kinase D3 (Homo sapiens, UniProt O94806); type: functional;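 note: determined within a kinase panel screen, with PRKCN as the panel member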
# Sequence of Serine/threonine-protein kinase D3 (O94806 whole entry): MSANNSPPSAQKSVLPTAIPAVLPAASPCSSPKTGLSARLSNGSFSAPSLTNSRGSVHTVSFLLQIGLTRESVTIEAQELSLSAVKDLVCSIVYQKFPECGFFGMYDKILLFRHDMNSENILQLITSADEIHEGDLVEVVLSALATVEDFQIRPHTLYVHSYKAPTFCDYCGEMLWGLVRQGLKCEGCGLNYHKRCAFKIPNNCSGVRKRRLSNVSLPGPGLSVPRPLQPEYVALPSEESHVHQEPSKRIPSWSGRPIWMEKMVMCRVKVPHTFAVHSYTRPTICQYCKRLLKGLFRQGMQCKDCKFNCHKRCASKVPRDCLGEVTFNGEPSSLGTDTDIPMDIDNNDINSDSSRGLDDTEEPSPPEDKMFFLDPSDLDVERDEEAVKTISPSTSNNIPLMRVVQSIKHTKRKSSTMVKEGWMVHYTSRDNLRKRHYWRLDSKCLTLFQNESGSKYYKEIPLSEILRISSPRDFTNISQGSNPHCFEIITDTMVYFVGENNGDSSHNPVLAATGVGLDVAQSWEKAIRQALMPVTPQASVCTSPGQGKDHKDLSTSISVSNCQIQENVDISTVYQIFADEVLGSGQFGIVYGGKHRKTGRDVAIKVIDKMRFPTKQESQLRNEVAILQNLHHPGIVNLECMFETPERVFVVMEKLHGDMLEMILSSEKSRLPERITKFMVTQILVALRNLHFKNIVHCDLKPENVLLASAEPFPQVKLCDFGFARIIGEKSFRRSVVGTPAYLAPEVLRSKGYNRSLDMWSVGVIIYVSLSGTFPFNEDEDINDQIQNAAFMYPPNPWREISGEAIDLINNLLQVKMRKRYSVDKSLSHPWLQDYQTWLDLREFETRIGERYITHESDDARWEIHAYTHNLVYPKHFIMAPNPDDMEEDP
# [22] = molecular target: Mitogen-activated protein kinase 8 (Homo sapiens, UniProt P45983); type: functional;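 note: value comes from one member of a kinome-wide kinase profiling panel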
# Sequence of Mitogen-activated protein kinase 8 (P45983 whole entry): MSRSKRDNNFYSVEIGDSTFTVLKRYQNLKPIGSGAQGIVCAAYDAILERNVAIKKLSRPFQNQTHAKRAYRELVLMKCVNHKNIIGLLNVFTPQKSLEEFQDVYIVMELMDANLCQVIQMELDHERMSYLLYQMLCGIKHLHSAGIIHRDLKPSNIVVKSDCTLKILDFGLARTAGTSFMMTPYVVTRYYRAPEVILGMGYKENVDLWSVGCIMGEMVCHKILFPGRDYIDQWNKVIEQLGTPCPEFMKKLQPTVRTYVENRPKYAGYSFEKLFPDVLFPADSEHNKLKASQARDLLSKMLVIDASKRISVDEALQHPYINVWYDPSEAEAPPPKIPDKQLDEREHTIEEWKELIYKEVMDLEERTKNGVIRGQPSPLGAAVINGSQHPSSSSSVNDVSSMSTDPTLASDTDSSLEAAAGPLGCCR
# 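Throughout, for CC50: cells exposed to compound for 72 hours before luminescence readout.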
# T1 sequence (O43614 whole entry): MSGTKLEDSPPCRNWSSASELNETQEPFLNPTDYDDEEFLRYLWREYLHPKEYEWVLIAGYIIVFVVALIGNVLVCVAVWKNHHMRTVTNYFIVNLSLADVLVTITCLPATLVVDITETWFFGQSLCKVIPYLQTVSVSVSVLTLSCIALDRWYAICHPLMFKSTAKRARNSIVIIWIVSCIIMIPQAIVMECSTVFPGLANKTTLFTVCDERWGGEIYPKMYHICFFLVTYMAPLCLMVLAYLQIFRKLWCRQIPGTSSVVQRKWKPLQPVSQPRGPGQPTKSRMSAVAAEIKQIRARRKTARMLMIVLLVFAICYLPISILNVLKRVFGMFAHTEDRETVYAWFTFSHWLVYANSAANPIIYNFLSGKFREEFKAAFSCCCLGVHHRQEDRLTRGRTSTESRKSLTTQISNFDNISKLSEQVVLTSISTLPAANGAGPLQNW
smiles,measurement,setting,value
O=C(C1CCCN1S(=O)(=O)c1cccc2cccnc12)N1CCn2c1nc1ccccc12 (configuration not stated),IC50,Orexin receptor type 2 [1],9.68 µM (active)
same,IC50,Orexin receptor type 2 [2],> 88.8 µM (inactive)
same,IC50,[3],0.153 µM (active)
same,IC50,[4],3.36 µM (active)
same,IC50,CHO-K1,> 66.2 µM (inactive)
same,IC50,[5],> 49.7 µM (inactive)
CCN(CC)C(=O)c1cc(C2CC2)on1,EC50,[6],> 50 µM (inactive)
same,EC50,[7],> 50 µM (inactive)
Cc1ccc2c(c1)c1c3n2CCN(C(=O)CCl)C3CCC1 (configuration not stated),AC50,[8],2.05 µM (active)
same,EC50,Protein RecA,1.19 µM (active)
same,IC50,Melanocortin receptor 4,> 64.6 µM (inactive)
same,CC50,[9],24.7 µM (active)
same,EC50,[10],> 32 µM (inactive)
same,IC50,[11],> 64.6 µM (inactive)
CC(C)(C)c1cc(NC(=O)c2cc3ccccc3s2)n(-c2cccc(OCC(=O)O)c2)n1,Ki,[12],2 µM (active)
Cc1n[nH]c2ccc(-c3cncc(OCCNS(C)(=O)=O)c3)cc12,Ki,[13],1 µM (active)
same,Ki,[14],0.0794 µM (active)
same,Ki,[15],0.0631 µM (active)
same,Ki,[16],5.01 µM (active)
same,Ki,[17],3.98 µM (active)
same,Ki,[18],6.31 µM (active)
same,Ki,[19],1 µM (active)
O=S(=O)(Nc1ccc2c(c1)C(=NO)c1ccccc1-2)c1ccccc1F,Ki,Aurora kinase A,0.794 µM (active)
same,Ki,[20],0.794 µM (active)
same,Ki,Aurora kinase B,0.02 µM (active)
CCOc1nc(NC(=O)C(C)C)cc(N)c1C#N,Ki,[21],7.94 µM (active)
same,Ki,[22],1.26 µM (active)

# — ChEMBL document CHEMBL1201862, “PubChem BioAssay data set” (2004)
